Data from paper PMC4947907, “Lupin Peptides Modulate the Protein-Protein Interaction of PCSK9 with the Low Density Lipoprotein Receptor in HepG2 Cells” (Scientific Reports, 2016).
Each block holds one molecule with its values, some of them ahead of it. No end group written: not given here.

Columns and labels:
[1] = biological target: T1, PCSK9-LDLR interaction (recombinant His-tagged PCSK9 / recombinant LDLR-AB domain) (Homo sapiens, UniProt Q8NBP7); assay: In vitro PCSK9-LDLR binding assay (solid-phase, CycLex); details: synthetic peptide, absorbance 450 nm versus vehicle, average ± SEM of three independent experiments in duplicate
T1 construct: purchased CycLex Co., Nagano, Japan
T1 sequence (Q8NBP7 153-692): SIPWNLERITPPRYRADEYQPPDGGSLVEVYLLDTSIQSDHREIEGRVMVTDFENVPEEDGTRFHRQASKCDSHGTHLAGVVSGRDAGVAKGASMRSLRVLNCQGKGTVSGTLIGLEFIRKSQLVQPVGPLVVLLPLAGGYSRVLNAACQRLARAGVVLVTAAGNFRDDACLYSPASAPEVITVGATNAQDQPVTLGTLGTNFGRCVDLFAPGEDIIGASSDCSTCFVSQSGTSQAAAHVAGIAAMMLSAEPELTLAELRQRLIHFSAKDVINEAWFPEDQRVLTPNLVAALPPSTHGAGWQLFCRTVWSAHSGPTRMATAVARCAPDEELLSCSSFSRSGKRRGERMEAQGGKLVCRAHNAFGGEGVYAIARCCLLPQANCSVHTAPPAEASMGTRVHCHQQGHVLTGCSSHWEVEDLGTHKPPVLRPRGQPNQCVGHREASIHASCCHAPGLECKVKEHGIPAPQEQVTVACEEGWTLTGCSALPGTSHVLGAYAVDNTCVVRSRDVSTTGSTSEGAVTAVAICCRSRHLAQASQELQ
T1 sequence (Q8NBP7 31-152 partner limits assumed): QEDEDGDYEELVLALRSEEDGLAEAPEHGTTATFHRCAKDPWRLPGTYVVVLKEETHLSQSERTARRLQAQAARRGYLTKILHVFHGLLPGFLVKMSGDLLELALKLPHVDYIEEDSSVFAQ
Experimental: In vitro experiments were performed using a solid-phase binding assay between recombinant His-tagged PCSK9 and recombinant LDLR-AB domain.
The commercial assay provides a plate pre-coated with a recombinant LDLR-AB domain, which is the PCSK9 binding site. For screening direct inhibitors of the PCSK9-LDLR interaction, lupin peptides were added to the proper amount of His-tagged PCSK9 in each well coated with LDLR-AB domain. Biotinylated anti-His-tag monoclonal antibody specifically reacted with recombinant His-tagged PCSK9 trapped with LDLR-AB domain immobilized on the microplate surface. The inhibitory effects were analyzed measuring the amount of His-tagged PCSK9 on the well. In particular, the inhibitory effect, calculated as % PCSK9-LDLR binding inhibition, determines a reduction of absorbance measured at 450 nm using the Synergy H1 fluorescent plate reader from Biotek versus vehicle control. Data points represent averages ± SEM of three independent experiments in duplicate. ***p < 0.0001 **p < 0.001 versus C.
The employed assay provides a plate pre-coated with a recombinant LDLR-AB domain, which is the PCSK9 binding site. For screening, the peptides were added to proper amount of His-tagged PCSK9 in each well coated with LDLR-AB domain. Biotinylated anti-His-tag monoclonal antibody specifically reacts with recombinant His-tagged PCSK9 trapped with LDLR-AB domain immobilized on the microplate surface. […] Data points represent averages ± SEM of three independent experiments in duplicate. *p < 0.05 **P < 0.001 versus C.
P-tot peptides (1.0 and 2.5 μg/μl), T-tot peptides (0.5 and 1.0 μg/μl), P-abs (12.5 ng/μl) and T-abs peptides (16.0 ng/μl) were tested using the in vitro PCSK9-LDLR binding assay (CycLex Co., Nagano, Japan) following the manufacture instructions. […] The reaction was stopped with 2.0 N sulfuric acid and the absorbance at 450 nm was measured using the Synergy H1 fluorescent plate reader (Biotek, Bad Friedrichshall, Germany).
The absorbance at 450 nm was measured using the Synergy H1 fluorescent plate reader (Biotek, Bad Friedrichshall, Germany).

[2] = tested on: Caco-2 cells; assay: Absorption in differentiated Caco-2 cells grown in two-compartment system; peptides identified/quantified in basolateral solution; assay type: in vitro ADME, human; details: Caco-2 AP to BL, 4 h
Text: Lupin protein consumption provides some health benefits in the area of hypercholesterolemia prevention. Studies in animal models[31][32] and in the clinics[33][34] have shown that the protein itself is a main hypocholesterolemic agent. […] Another investigation in human Caco-2 cells has provided evidence that at least some of these peptic and tryptic peptides may be absorbed in the small intestine, since they are transferred from the apical (AP) to the basolateral (BL) compartment in differentiated Caco-2 cells grown in a two-compartment system.
Precisely, Caco-2 cells have been incubated for 4 h in the AP chamber with 500 μl of a 1.0 μg/μl solution of P-tot or T-tot peptides and, at the end of treatment, BL solutions (700 μl) have been collected and absorbed peptic and tryptic peptides identified by HPLC-Chip ESI-MS/MS[37]. The BL solutions were then dried and diluted to 100 μl to obtain the solutions P-abs and T-abs at the concentration of 0.25 and 0.32 μg/μl, respectively. Both solutions were used for the present experiments.
The peptic (P-tot) and tryptic (T-tot) hydrolyzates from lupin protein are the same used in a previous paper, in which their capability to modulate cholesterol metabolism in HepG2 cells was investigated. […]

[3] = tested on: PCSK9-LDLR interaction; details: ref 23 (Zhang and coworkers); read-out: IC50, PCSK9-LDLR inhibition; cited from earlier work
Text: P5 is thus one of the shortest peptides ever described in literature endowed with this specific activity.

[4] = biological target: recombinant His-tagged PCSK9 wild type (proprotein convertase subtilisin/kexin type 9) (human, UniProt Q8NBP7 153-692, Limits of the kit protein are not printed. Taken as secreted, autocleaved PCSK9: prodomain 31-152 non-covalently bound to mature chain 153-692, from UniProt features. His tag omitted.); assay: ELISA; CycLex in vitro PCSK9-LDLR binding assay: plate pre-coated with LDLR-AB domain; His-tagged PCSK9 added with vehicle or synthetic peptides T9 (32-320 uM) or P5 (0.001-100 uM), 2 h at room temperature; bound PCSK9 detected with biotinylated anti-His-tag antibody, absorbance at 450 nm; details: both partners purified
recombinant His-tagged PCSK9 wild type (proprotein convertase subtilisin/kexin type 9), sequence (Q8NBP7 153-692): as the sequence (Q8NBP7 153-692) above

inhibition at 32 µM ([1]; 32 μM): 19 ± 8.47% | inhibition at 160 µM ([1]; 160 μM): 33 ± 5.33% | inhibition at 320 µM ([1]; […] μM): 53 ± 1.02%
Molecule: CC[C@H](C)[C@H](NC(=O)[C@@H](NC(=O)CNC(=O)[C@H](CCC(=O)O)NC(=O)[C@H](CC(=O)O)NC(=O)[C@H](CCC(N)=O)NC(=O)[C@H](Cc1c[nH]cn1)NC(=O)[C@H](CO)NC(=O)[C@H](CCC(N)=O)NC(=O)[C@H](CCC(=O)O)NC(=O)[C@H](CCC(N)=O)NC(=O)CN)C(C)C)C(=O)N[C@H](C(=O)N[C@@H](CCCNC(=N)N)C(=O)O)C(C)C [Peptide T9]

P5 concentration in the P-abs solution ([2]; AP 500 μl of 1.0 μg/μl P-tot, BL solution (700 μl) dried and diluted to 100 μl, HPLC-MS/MS m/z 554.8 → 770.0, external calibration with synthetic standard, three injections): 28.64 ± 0.43 ng/µL | P5 share of total peptic peptides absorbed by Caco-2 cells ([2]; P-abs sample, HPLC-MS/MS): 11.5%
Molecule: LILPKHSDAD [Peptide P5]

Molecule: Ac-TVFTSWEEYLDWV-amide [Pep2-8]
IC50 [3]: 0.81 ± 0.08 µM

IC50 [4]: 1.6 µM
B1: P5 (peptide)
peptide: LILPKHSDAD
notes: peptic peptide of Lupinus albus β2-conglutin (beta-conglutin precursor); source: synthetic peptide (PRIMM, Milan), >95% pure by HPLC
